For 24 molecules, TGI and GI50 results are on record in PubChem BioAssay (NCI).

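Five compound concentrations were applied to cells in 96-well plates for 48 hours; endpoints were derived by simple linear interpolation of the resulting dose-response curve. The concentration for 50% growth inhibition is given as GI50. At the TGI there is no net growth.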

Common to all, as to assay: inhibition of tumour cell growth, NCI panel, 48 h
The test system of assay [1] is NCI-H226 lung.
The test system of assay [2] is HL-60(TB) leukemia.
For assay [3], the system named is NCI-H23 lung.
Assay [4] has as its system SK-MEL-5 melanoma.
For assay [5], the system named is SK-MEL-2 melanoma.
Assay [6] has as its system SF-295 CNS.
Assay [7] relates to CAKI-1 renal.
For assay [8], the system named is HCT-15 colon.
Assay [9] relates to MCF7 breast.
In assay [10] the test system is M19-MEL melanoma.

In the case of `CC(/C=C/c1ccc([N+](=O)[O-])o1)=N/N1CC(CN2CCOCC2)OC1=O` (stereo not drawn), the TGI was 52.1 µM in assay [1]; 55.7 µM in [2]; 49.8 µM in assay [3]; 28.6 µM in [4]; 34.6 µM in [5]; over 100 µM in assay [6]. Also, the TGI in assay [7] turned out to be 40.7 µM; in assay [8] it was 40.3 µM; in assay [9] it was 27 µM.

On to `CCOc1ccc(/C=C/[N+](=O)[O-])cc1`, for which the GI50 in assay [1] was 3.06 µM; in [2], 8.83 µM; in assay [3] it was 18.5 µM; in assay [4] it was 5.78 µM; in [5] it was 17.1 µM; in assay [6], 19.2 µM. Moreover, the GI50 in assay [7] is 37 µM; in assay [8], 2.84 µM; in assay [9] it was 3.4 µM. The TGI in assay [1] is 11.7 µM; in [2], 49 µM; in assay [3], over 100 µM; in assay [4] it was 18.5 µM; in [5] it was 33 µM; in assay [6], 41.8 µM. In addition, the TGI in [7] was over 100 µM; in assay [8] it was 11.3 µM; in [9] it was 13.5 µM.

As for `CC(C)=CC(=O)OC1C2C(C)C(=O)OC2C(O)C(C)C2C=CC(=O)C21C` (stereo not drawn), the TGI is 11.6 µM in assay [1]; 3.4 µM in assay [2]; 7.59 µM in [3]; 9.14 µM in assay [4]; 11.5 µM in assay [5]; 13.4 µM in assay [6]. Also, the TGI worked out at 8.42 µM in assay [10], 7.71 µM in [7], 8.52 µM in assay [8] and 11.1 µM in [9].

Consider `O=C(Nc1ccc(Cl)cc1)/C(Cc1cccc[n+]1[O-])=N\Nc1ccc([N+](=O)[O-])cc1[N+](=O)[O-]`, for which the TGI in assay [2], in assay [3], in assay [4], in [5], in [6] and in assay [10] was over 100 µM each time. The TGI in assay [7] and in assay [8] was over 100 µM throughout.

As to `Cc1cccc2c(N)c3cccc(C(=O)NCCN(C)C)c3nc12`, the TGI in assay [1] came out at 1.48 µM; in assay [2], 0.0427 µM; in assay [3], 1.16 µM; in assay [4], 0.269 µM; in assay [5], 0.463 µM; in [6], 0.615 µM. The values for the TGI in assay [7] and in assay [8] were 1.08 µM and 4.29 µM, respectively.

As for `COc1ccc(/C=N/NC(=O)NCCCN(C)C)cc1`, the TGI in assay [1], in assay [2], in assay [3], in assay [4], in [5] and in assay [6] was over 100 µM each time. Also, in [8], the TGI is over 100 µM.

As for `O=C1Nc2ccccc2Nc2nc3cccccc-3c21`, the TGI in assay [1], in assay [2], in assay [3], in [4], in [5] and in [6] was over 100 µM each time. Also, the TGI in assay [10], in assay [7] and in [8] was over 100 µM throughout.

In the case of `CN1CCN(Cc2ccc(NC(=O)c3ccc(C#N)c(C#Cc4cnc(N)c5ncccc45)c3)cc2C(F)(F)F)CC1`, the GI50 in [2] is 14.5 µM; in assay [4] it was 6.67 µM; in assay [5], 2.45 µM; in assay [6] it was 22.1 µM; in assay [7] it was 1.91 µM. The TGI in [2] was over 100 µM; in assay [4], 83.1 µM; in assay [5], over 100 µM; in [6], 78.3 µM; in assay [7], 5.04 µM.

Consider `c1ccc2c(c1)nc1n2CSC1`, for which the TGI in assay [1], in assay [2], in assay [3], in assay [4], in [5] and in assay [6] was over 100 µM in each case. For the same molecule, the TGI in [10], in assay [7] and in [8] was over 100 µM in each case.

For `CCOP(=O)(OCC)C(Cc1ccc(OC)c(OC)c1)N=C(c1ccccc1)c1ccccc1` (stereo not drawn), the TGI is over 100 µM in assay [1]; 51.9 µM in assay [2]; over 100 µM in [3]; 55.9 µM in assay [4]; over 100 µM in assay [6]; over 100 µM in assay [7]. Further, the figures for the TGI in [8] and in assay [9] were over 100 µM and 55.5 µM, respectively.

As to `COc1c2c(cc3c(CCc4ccccc4)cc(=O)oc13)CCC(C)(C)O2`, the TGI in assay [1], in assay [2], in assay [3], in [4], in assay [5] and in [6] was over 100 µM throughout. The TGI in assay [10] and in assay [8] was over 100 µM in each case.

Take `CC1(C)CCc2cc3c(-c4ccccc4)cc(=O)oc3cc2O1`: the TGI in assay [1], in [2], in assay [3], in [4], in assay [5] and in assay [6] was over 100 µM each time. Further, the TGI in [10], in [7] and in assay [8] was over 100 µM throughout.

Turning to `Cc1nc2ccccc2c(=O)n1CC(=O)O`, the TGI in assay [1], in [2], in [3], in [4], in assay [5] and in assay [6] was over 100 µM each time. Further, the TGI in [10], in assay [7], in assay [8] and in assay [9] was over 100 µM in each case.

Turning to `CN1C2C=C(c3ccccc3)CC1CC2` (stereo not drawn), the TGI in [2], in assay [3], in [4], in assay [5], in [6] and in assay [10] was over 100 µM in each case. Besides, the TGI in [8] is over 100 µM.

Consider `CCCCN(CCCC)CCCCNc1c(C)cnc2cc(Cl)ccc12`, for which the TGI is 43.4 µM in [1]; over 100 µM in assay [3]; 39.9 µM in [5]; 50.8 µM in assay [6]; over 100 µM in assay [10]; over 100 µM in assay [8].

As for `O=C(Nc1nc2ccc([N+](=O)[O-])cc2[n+]([O-])n1)C(F)(F)F`, the TGI was over 100 µM in [1]; 34.9 µM in assay [2]; 80.3 µM in assay [3]; 25.3 µM in assay [4]; 65.2 µM in assay [5]; over 100 µM in assay [6]. Besides, the TGI was over 100 µM in [7], 98.8 µM in [8] and 52.4 µM in [9].

`CC(C)=CCc1c(C)cc2cc3c(c(O)c2c1O)C(O)=CC(=O)C3(CC=C(C)C)C/C=C(\C)CO` (stereo not drawn): the TGI amounted to 77 µM in [1]; 51.3 µM in assay [2]; 84.8 µM in [3]; 50.9 µM in assay [4]; 29.8 µM in assay [5]; 87.9 µM in assay [6]. Also, the TGI in assay [10] came out at 79.9 µM; in assay [7], 91.3 µM; in assay [8], 68 µM; in [9] it was 84.3 µM.

For the molecule `CCOc1ccc2c(ccc(/C=C\c3cc(C)c4cccnc4c3O)[n+]2C)c1`, the TGI was determined as 3.77 µM in assay [1]; 1.05 µM in assay [2]; 43.5 µM in assay [3]; 3.48 µM in assay [4]; 3.24 µM in assay [5]; 20.7 µM in assay [6]. Moreover, the TGI in assay [10] is over 100 µM; in assay [7] it was 29.3 µM; in [8], 23.7 µM.

For the molecule `Cc1ccc(S(=O)(=O)Oc2cc(S(=O)(=O)O)cc3cc(S(=O)(=O)O)cc(N)c23)cc1`, the TGI in [1], in assay [2], in assay [3], in assay [4], in assay [5] and in assay [6] was over 100 µM each time. The TGI in assay [7], in assay [8] and in assay [9] was over 100 µM in each case.

Turning to `COc1cc2c3c(n(CCN(C)C)c(=O)c2cc1OC)-c1cc2c(cc1C3=O)OCO2`, the GI50 in assay [1] is 1.08 µM; in assay [2], 1.02 µM; in [3], 0.137 µM; in [4], 1.21 µM; in [5], over 96.1 µM; in [6], 0.511 µM. In addition, the GI50 in assay [7] was 0.747 µM; in assay [8], 2.32 µM; in assay [9] it was 0.297 µM. The TGI is 57.9 µM in assay [1]; over 35.8 µM in assay [2]; over 100 µM in assay [3]; 22.1 µM in assay [4]; over 100 µM in assay [5]; over 41.7 µM in assay [6]. The figures for the TGI in [7], in assay [8] and in [9] were 44.3 µM, over 100 µM and over 33.8 µM, respectively.

For the molecule `Nc1ncnc2c1ncn2C1CCC(CO)O1` (stereo not drawn), the TGI was over 74.7 µM in assay [1]; over 100 µM in assay [2]; over 71.5 µM in assay [3]; over 100 µM in assay [4]; over 100 µM in [5]; over 79.4 µM in assay [6]. For the same molecule, the TGI in assay [10], in [7], in [8] and in assay [9] was over 100 µM throughout.

Turning to `CCN(CC)CCCC(Nc1c2ccc(Cl)cc2nc2ccc(OC)cc12)c1ccc(F)cc1` (stereo not drawn), the GI50 in assay [1] was 20.9 µM; in assay [2], 1.91 µM; in [3], 2.56 µM; in assay [4], 1.7 µM; in assay [5] it was 2.1 µM; in assay [6] it was 1.6 µM. Besides, the GI50 is 1.73 µM in assay [7], 1.56 µM in assay [8] and 1.64 µM in assay [9]. The TGI in [1] was determined as 47.5 µM; in assay [2], 4.02 µM; in assay [3], 7.9 µM; in assay [4], 3.15 µM; in [5], 4.35 µM; in assay [6], 3.16 µM. The values for the TGI in [7], in assay [8] and in assay [9] were 3.79 µM, 3.27 µM and 3.62 µM, respectively.

`C[C@]12C=CC(=O)C=C1CC[C@@H]1[C@@H]2C(=O)C[C@@]2(C)[C@H]1CC[C@]2(O)C(=O)CO`: the TGI in assay [1], in assay [2], in assay [3], in assay [4], in assay [5] and in assay [6] was over 100 µM in each case. The TGI in assay [7], in assay [8] and in [9] was over 100 µM in each case.

As to `[C-]#[O+].[Cl][Sn]([Cl])[Cl].[Cl][Sn]([Cl])[Cl].[Pt].c1ccncc1`, the TGI in assay [1] was over 100 µM; in assay [2], over 74 µM; in assay [3], over 100 µM; in [4], over 100 µM; in assay [5], over 100 µM; in [6], over 100 µM. Moreover, the TGI in [7], in assay [8] and in assay [9] was over 100 µM in each case. Also, the GI50 in [9] was over 100 µM.
